From patent EP1097196B2, “GL[…]” (priority 1998, dated 2000)

Columns and labels:
Assay in all cases: Specific activity as kcat on purified enzyme
Format in all cases: biochemical
Settings in all cases: pH 4.3, 37°C, purified sample
[1] = tested on: Aspergillus niger glucoamylase AMG G2 (SEQ ID NO: 2) variant G127A
Experimental: (§1) Maltose: 29mM (1g maltose in 100ml 50mM sodium acetate, pH 4.5) (Sigma) Maltoheptaose: 10 mM, 115 mg/10 ml (Sigma)
(§2) Determining Specific Activity As kcat (sec.^-1).
(§3) 750 microL substrate (1% maltose, 50 mM Sodium acetat, pH 4.3) is incubated 5 minutes at selected temperature, such as 37°C or 60°C.
(§4) 50 microL enzyme diluted in sodium acetate is added. Aliquots of 100 microL are removed after 0, 3, 6, 9 and 12 minutes and transferred to 100 microL 0.4 M Sodium hydroxide to stop the reaction. A blank is included. 20 microL is transferred to a Micro titre plates and 200 microL GOD-Perid solution is added. Absorbance is measured at 650 nm after 30 minutes incubation at room temperature. Glucose is used as standard and the specific activity is calculated as kcat (sec.^-1).
(§5) AMG G2 variants were constructed as described above in Example 1. The specific activity as kcat were measured on purified samples at pH 4.3, 37°C, using maltose and maltohepatose as substrate as described in the "Materials & Methods" section above. The specific activity as AGU/mg were also measured at pH 4.3, 37°C, using maltose as substrate as described in the "Materials & Methods" section above.

[2] = tested on: Aspergillus niger glucoamylase AMG G2 (SEQ ID NO: 2) variant G207N
Experimental: as §1, §2, §3, §4, §5

[3] = tested on: Aspergillus niger glucoamylase AMG G2 (SEQ ID NO: 2) variant N110T
Experimental: as §1, §2, §3, §4, §5

[4] = tested on: Aspergillus niger glucoamylase AMG G2 (SEQ ID NO: 2) variant S119P
Experimental: as §1, §2, §3, §4, §5

[5] = tested on: Aspergillus niger glucoamylase AMG G2 (SEQ ID NO: 2) variant V111P
Experimental: as §1, §2, §3, §4, §5

[6] = tested on: Aspergillus niger glucoamylase AMG G2 (wt), SEQ ID NO: 2
Experimental: as §1, §2, §3, §4, §5

OC[C@H]1O[C@H](O[C@H]2[C@H](O)[C@@H](O)C(O)O[C@@H]2CO)[C@H](O)[C@@H](O)[C@@H]1O (mixture of isomers) [Maltose]
Kcat (Maltose) ([1]; substrate maltose): 21.0 sec.-1 | Kcat (Maltose) ([2]; substrate maltose): 30.5 sec.-1 | Kcat (Maltose) ([3]; substrate maltose): 9.7 sec.-1 | Kcat (Maltose) ([4]; substrate maltose): 6.2 sec.-1 | Kcat (Maltose) ([5]; substrate maltose): 12.0 sec.-1 | Kcat (Maltose) ([6]; substrate maltose): 6.0 sec.-1

OC[C@H]1O[C@H](O[C@H]2[C@H](O)[C@@H](O)[C@@H](O[C@H]3[C@H](O)[C@@H](O)[C@@H](O[C@H]4[C@H](O)[C@@H](O)[C@@H](O[C@H]5[C@H](O)[C@@H](O)[C@@H](O[C@H]6[C@H](O)[C@@H](O)[C@@H](O[C@H]7[C@H](O)[C@@H](O)C(O)O[C@@H]7CO)O[C@@H]6CO)O[C@@H]5CO)O[C@@H]4CO)O[C@@H]3CO)O[C@@H]2CO)[C@H](O)[C@@H](O)[C@@H]1O (stereo partly drawn) [Maltoheptaose]
Kcat (Maltoheptaose) ([1]; substrate maltoheptaose): 40.0 sec.-1 | Kcat (Maltoheptaose) ([2]; substrate maltoheptaose): 36.3 sec.-1 | Kcat (Maltoheptaose) ([3]; substrate maltoheptaose): 27.8 sec.-1 | Kcat (Maltoheptaose) ([4]; substrate maltoheptaose): 44.0 sec.-1 | Kcat (Maltoheptaose) ([5]; substrate maltoheptaose): 43.2 sec.-1 | Kcat (Maltoheptaose) ([6]; substrate maltoheptaose): 38 sec.-1
